Molecules are shown by their SMILES.

The test concerns the target T1, human serum albumin (HSA) (Homo sapiens, UniProt P02768).
T1 construct: gene ALB; mature full-length, 585 residues, 66500 Da, single chain
Kind of test: intrinsic fluorescence quenching, double-log plot. The class given is binding. The following applies: 20 °C, 0.01 M PBS pH 7.4, 1 μM HSA, 0-18 nM ligand, λex 280 nm. The source says:
intrinsic fluorescence quenching, double-log plot on human serum albumin (HSA)

T1 sequence (P02768 25-609): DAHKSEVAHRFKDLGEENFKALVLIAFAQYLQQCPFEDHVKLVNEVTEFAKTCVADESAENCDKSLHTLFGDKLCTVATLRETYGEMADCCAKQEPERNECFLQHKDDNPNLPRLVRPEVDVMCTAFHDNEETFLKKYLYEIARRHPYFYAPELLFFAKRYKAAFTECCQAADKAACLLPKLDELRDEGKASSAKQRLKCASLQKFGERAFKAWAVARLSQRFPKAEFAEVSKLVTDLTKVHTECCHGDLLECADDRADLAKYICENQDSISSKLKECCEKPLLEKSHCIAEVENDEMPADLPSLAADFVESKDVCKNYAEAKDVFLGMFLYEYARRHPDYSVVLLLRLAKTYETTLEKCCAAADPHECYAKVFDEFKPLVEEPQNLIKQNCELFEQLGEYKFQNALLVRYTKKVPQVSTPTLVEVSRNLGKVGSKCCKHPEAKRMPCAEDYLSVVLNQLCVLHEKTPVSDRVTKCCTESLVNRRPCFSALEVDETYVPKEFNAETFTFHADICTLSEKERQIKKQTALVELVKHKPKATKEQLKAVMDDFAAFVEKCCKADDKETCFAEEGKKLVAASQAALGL

As to `C[C@@]12C[C@@]3(O)O[C@@H](O1)[C@]1(COC(=O)c4ccccc4)[C@H]3C[C@@]12O[C@@H]1O[C@H](CO)[C@@H](O)[C@H](O)[C@H]1O` [paeoniflorin], the “Ka (mol.L^-1) ± SD” value is 7.39 × 10^4 ± 0.174 mol·L^-1.

The values are drawn from publication PMC6017552, “Interaction between Saikosaponin D, Paeoniflorin, and Human Serum Albumin” (Molecules : A Journal of Synthetic Chemistry and Natural …, 2018).
